Measured values as given in patent US4985440A, “Hypolipidaemic imidazol-2-yl-derivatives of bicyclic compounds” (priority 1988, dated 1991).

Experiments:
[1] = Serum lipid lowering in male rats on standard diet (Table 1, activity as % variation vs. controls); assay type: in vivo, Iva:SDIV (SPF) male rats; settings: rat, 50 mg/kg/os, 4 days by stomach tube, * p ≤ 0.05, ** p ≤ 0.01; for Triglycerides, activity as % variation vs. controls: serum triglycerides; for Tot. Chol., activity as % variation vs. controls: total serum cholesterol
Experimental: The activity of compounds of this invention was evaluated on Groups of Iva:SDIV (SPF) male rats fed standard diet (Altromin^R).
The compounds were suspended in "Methocel" (methyl cellulose, a 0.5% pseudosolution in water) and administered by stomach tube for 4 days.
Groups of animals were treated with the suspending agent only (control groups).
The total serum cholesterol was determined with the method of Allain C. C. (Clin. Chem. 20, 470, 1974).
The serum triglycerides were determined with the method of Spayd R. N. (Clin. Chem. 24, 1343, 1978).
The total serum HDL cholesterol was determined according to Demacker P. N. M. [Clin. Chem., 23, 1238 (1977)].
W. - J. Amer. Stat. Ass., 50, 1096 (1955)].

[2] = molecular target: T1, acyl CoA: cholesterol acyltransferase (ACAT-EC 2.3.1.26) (Oryctolagus cuniculus, UniProt A0A5F9CPP4); experiment: ACAT inhibition in microsomes from atherosclerotic rabbit thoracic aortas (Table 2); assay type: biochemical
T1 construct: microsomal preparations from atherosclerotic rabbit thoracic aorta (intimamedia); from tissue; host or cells: microsomes of atherosclerotic rabbit thoracic aorta (intima-media)
T1 sequence (A0A5F9CPP4 1-555): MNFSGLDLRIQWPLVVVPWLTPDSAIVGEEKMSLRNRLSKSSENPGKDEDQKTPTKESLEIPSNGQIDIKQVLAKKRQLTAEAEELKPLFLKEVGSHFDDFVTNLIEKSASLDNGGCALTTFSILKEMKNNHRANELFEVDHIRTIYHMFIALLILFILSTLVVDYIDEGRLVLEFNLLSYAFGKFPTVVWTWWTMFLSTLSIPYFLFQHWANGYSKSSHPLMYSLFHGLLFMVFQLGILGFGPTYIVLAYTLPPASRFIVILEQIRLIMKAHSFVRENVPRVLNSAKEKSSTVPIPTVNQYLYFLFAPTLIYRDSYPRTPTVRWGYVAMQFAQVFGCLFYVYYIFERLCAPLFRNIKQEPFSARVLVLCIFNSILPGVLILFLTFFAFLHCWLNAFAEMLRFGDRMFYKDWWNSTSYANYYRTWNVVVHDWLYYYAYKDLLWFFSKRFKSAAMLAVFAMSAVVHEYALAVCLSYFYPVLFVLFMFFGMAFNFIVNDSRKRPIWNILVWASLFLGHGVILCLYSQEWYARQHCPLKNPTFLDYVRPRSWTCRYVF

ACAT = settings: rabbit arterial microsomes; Hudson H., Day A., Atherosclerosis (1982) 45, 109; cited from earlier work

Row | IC50 ([2]; microsomes from atherosclerotic rabbit thoracic aortas (intimamedia), limits p = 0.95) [nM] | potency in ACAT inhibition relative to Bezafibrate (times more potent) ([2]; ratio of IC50 values, vs. Bezafibrate) | SMILES | HDL/LDL + VLDL Chol. ratio, activity as % variation vs. controls [1] | LDL + VLDL Chol., activity as % variation vs. controls [1] [%] | Triglycerides, activity as % variation vs. controls [1] [%] | Tot. Chol., activity as % variation vs. controls [1] [%] | inhibitory activity in vitro (in words) (ACAT)
1 | – | – | CCOC(=O)C(C)(C)Oc1ccc(Cl)cc1 [Clofibrate, reference compound] | +18% | -19 | -22 | -11 | –
2 | 1060 | about 500 times | CCCC1Oc2ccc(OCCCC(C)(C)C(=O)OCC)cc2C=C1c1nccn1C (stereo not drawn) [FCE 25184, ethyl 5-[3-(1-methyl-1H-imidazol-2-yl)-2-n-propyl-2H-1-benzopyran-6-yl]oxy-2,2-dimethylpentanoate] | – | – | – | – | –
3 | – | – | CC(C)(Oc1ccc(CCNC(=O)c2ccc(Cl)cc2)cc1)C(=O)O [Bezafibrate] | – | – | – | – | inhibitory activity in vitro (rabbit arterial microsomes) has been already demonstrated
4 | – | – | CCOC(=O)C(C)(C)CCCOc1ccc2c(c1)C=C(c1nccn1C)C(C)O2 (stereo not drawn) [FCE 25086, ethyl 5-[2-methyl-3-(1-methyl-1H-imidazol-2-yl)-2H-1-benzopyran-6yl]oxy-2,2-dimethylpentanoate] | +135% | -55 | -53 | -14 | –
5 | – | – | CCOC(=O)C(C)(C)CCCOc1ccc2c(c1)C=C(c1nccn1C)CC2 [FCE 25390, ethyl 5-[5,6-dihydro-7-(1-methyl-1H-imidazol-2-yl)naphthalen-2yl]oxy-2,2-dimethylpentanoate] | +96% | -59 | -58 | -36 | –
